Counter-ions that a name gives are not always drawn.
Legend:
complement system = conditions: literature report; cited from earlier work
[1] = tested on: hereditary angioneurotic edema; conditions: The New England Journal of Medicine, 286, 808-812 (1972); cited from earlier work
shunt pathway = assay: Test, Code 036 (C-Shunt inhibitor): lysis of human erythrocytes via the shunt pathway activated by cobra venom factor; type: biochemical; set-up: key: Negative; conditions: serial two-fold dilution assay; higher well number indicates higher activity
From the text: (§1) An active inhibitor protects C2 from C1 and C4; (ii) Test, Code 035 (C3-C9 inhibitor) -- This test determines the ability of the late components of human complement (C3-C9) to lyse EAC 142 in the presence of appropriate dilutions of the test compound. An active inhibitor protects EAC 142 from lysis by human C3-C9; (iii) Test, Code 036 (C-Shunt inhibitor) -- In this test human erythrocytes rendered fragile are lysed in autologous serum via the shunt pathway activated by cobra venom factor in the presence of appropriate dilutions of the test compound. Inhibition of the shunt pathway results in failure of lysis; (iv) Forssman Vasculitis Test -- Here, the well known complement dependent lesion, Forssman vasculitis, is produced in guinea pigs by intradermal injection of rabbit anti-Forssman antiserum. The lesion is measured in terms of diameter, edema and hemorrhage and the extent to which a combined index of these is inhibited by prior intraperitoneal injection of the test compound at 200 mg/kg is then reported, unless otherwise stated; (v) Forssman Shock Test -- Lethal shock is produced in guinea pigs by an i.v. injection of anti-Forssman antiserum and the harmonic mean death time of treated guinea pigs is compared with that of simultaneous controls; (vi) Complement Level Reduction Test -- In this test, the above dosed guinea pigs, or others, are bled for serum and the complement level is determined in undiluted serum by the capillary tube method of U.S. Pat. No. 3,876,376 and compared to undosed control guinea pigs; and (vii) Cap 50 Test -- Here, appropriate amounts of the test compound are added to a pool of guinea pig serum in vitro, after which the undiluted serum capillary tube assay referred to above is run. The concentration of compound inhibiting 50% is reported.
(§2) **Activity in wells a serial dilution assay. Higher well number indicates
(§3) higher activity. The serial dilutions are two-fold.

activated human C1 = molecular target: T1, activated human C1 (Homo sapiens, UniProt P09871); assay: Test, Code 026 (C1 inhibitor): protection of human C2 from activated human C1 and C4; type: biochemical; conditions: serial two-fold dilution assay; higher well number indicates higher activity
T1 construct: fluid-phase human C2 substrate in presence of C4
From the text: as §1, §2, §3

[2] = tested on: late components of human complement (C3-C9); assay: Test, Code 035 (C3-C9 inhibitor): lysis of EAC 142 by late components of human complement; type: biochemical; set-up: key: Negative; conditions: serial two-fold dilution assay; higher well number indicates higher activity
From the text: as §1, §2, §3

whole complement = assay: Complement Level Reduction Test: whole complement in serum of dosed guinea pigs, capillary tube assay; type: in vivo; conditions: 200 mg/kg
From the text: as §1
With reference to Table I, guinea pigs weighing about 300 g were dosed intravenously (i.v.) or intraperitoneally (i.p.) with 200 mg/kg of the test compound dissolved in saline and adjusted to pH 7-8. […] The serum was tested for whole complement using the capillary tube assay. Percent inhibition was calculated by comparison with simultaneous controls. The results appear in Table I together with results of tests, code 026, 035, 036, Cap 50, % inhibition and Forssman shock.

T1 sequence (P09871 16-688): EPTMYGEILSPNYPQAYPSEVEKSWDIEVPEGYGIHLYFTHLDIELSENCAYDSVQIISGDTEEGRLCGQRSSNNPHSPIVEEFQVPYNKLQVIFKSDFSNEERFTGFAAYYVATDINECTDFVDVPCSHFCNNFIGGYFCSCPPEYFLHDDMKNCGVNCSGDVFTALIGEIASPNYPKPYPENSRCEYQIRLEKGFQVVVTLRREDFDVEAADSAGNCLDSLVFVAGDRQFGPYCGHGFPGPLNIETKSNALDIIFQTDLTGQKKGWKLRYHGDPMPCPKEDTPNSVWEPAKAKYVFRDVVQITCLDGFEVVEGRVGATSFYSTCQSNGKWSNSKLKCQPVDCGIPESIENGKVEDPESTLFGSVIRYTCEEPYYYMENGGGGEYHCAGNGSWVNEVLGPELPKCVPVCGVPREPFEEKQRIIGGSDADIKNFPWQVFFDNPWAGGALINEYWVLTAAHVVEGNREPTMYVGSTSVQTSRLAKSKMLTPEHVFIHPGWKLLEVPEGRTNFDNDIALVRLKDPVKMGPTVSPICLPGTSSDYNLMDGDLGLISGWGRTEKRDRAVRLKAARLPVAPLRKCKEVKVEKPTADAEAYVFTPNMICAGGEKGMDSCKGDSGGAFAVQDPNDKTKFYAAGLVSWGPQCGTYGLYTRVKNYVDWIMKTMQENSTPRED
T1 sequence (P00736 18-705 partner): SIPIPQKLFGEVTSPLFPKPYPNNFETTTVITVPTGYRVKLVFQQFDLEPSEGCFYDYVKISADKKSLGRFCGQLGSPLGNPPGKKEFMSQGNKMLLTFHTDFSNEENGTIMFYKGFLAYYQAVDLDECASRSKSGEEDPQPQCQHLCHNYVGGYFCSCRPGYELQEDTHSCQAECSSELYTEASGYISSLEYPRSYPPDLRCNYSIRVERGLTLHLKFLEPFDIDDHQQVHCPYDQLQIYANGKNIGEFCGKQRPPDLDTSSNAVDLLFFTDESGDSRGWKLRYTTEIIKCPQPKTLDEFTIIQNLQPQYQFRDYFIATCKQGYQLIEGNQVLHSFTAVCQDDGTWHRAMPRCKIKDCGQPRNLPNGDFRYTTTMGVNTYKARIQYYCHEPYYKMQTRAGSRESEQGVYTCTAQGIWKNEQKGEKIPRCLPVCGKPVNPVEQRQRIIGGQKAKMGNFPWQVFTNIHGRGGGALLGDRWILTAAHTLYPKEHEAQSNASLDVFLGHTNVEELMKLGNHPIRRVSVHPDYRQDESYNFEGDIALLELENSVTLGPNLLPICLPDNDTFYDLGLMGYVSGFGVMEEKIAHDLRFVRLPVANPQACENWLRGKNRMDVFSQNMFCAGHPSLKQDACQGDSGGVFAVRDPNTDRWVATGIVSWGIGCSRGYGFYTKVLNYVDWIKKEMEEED
T1 sequence (P02745 23-245 partner): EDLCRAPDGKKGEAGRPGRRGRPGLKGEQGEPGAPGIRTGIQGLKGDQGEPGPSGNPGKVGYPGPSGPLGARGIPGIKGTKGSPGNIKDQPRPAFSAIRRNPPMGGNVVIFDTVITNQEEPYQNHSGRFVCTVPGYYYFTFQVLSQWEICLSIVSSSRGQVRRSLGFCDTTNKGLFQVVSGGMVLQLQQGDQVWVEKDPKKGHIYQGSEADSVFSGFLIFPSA
T1 sequence (P02746 28-253 partner): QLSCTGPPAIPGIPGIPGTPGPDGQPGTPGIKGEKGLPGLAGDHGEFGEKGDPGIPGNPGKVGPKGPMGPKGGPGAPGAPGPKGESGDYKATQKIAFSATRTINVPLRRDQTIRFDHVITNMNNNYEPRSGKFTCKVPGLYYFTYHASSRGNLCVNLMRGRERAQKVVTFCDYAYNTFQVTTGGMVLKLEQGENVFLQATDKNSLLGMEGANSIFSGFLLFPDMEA
T1 sequence (P02747 29-245 partner): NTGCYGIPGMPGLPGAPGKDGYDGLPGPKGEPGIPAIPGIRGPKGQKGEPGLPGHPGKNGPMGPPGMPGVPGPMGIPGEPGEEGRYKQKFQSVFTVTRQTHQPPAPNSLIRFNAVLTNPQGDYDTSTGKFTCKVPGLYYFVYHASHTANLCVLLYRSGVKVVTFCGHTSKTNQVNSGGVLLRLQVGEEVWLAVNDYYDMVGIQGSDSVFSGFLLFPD

Compound | anticomplementary / complement inhibiting effect (complement system) | use in the treatment of hereditary angioneurotic edema [1] | Shunt Inhibition 036 Wells (shunt pathway) | C1 026 Wells (activated human C1) | C-Late 035 Wells [2] | In Vivo Activity (Guinea Pig) % Inhibition, Intraperitoneal, 30 minutes (whole complement) | In Vivo Activity (Guinea Pig) % Inhibition, Intraperitoneal, 60 minutes (whole complement) | In Vivo Activity (Guinea Pig) % Inhibition, Intraperitoneal, 120 minutes (whole complement)
8-(3-benzamido-4-methylbenzamido)naphthalene-1,3,5-trisulfonic acid [Suramin] | competitive inhibitor of the complement system | used with success | – | – | – | – | – | –
O=C([O-])c1cccc(NS(=O)(=O)c2ccc3c(S(=O)(=O)Nc4cccc(C(=O)[O-])c4)cc(S(=O)(=O)Nc4cccc(C(=O)[O-])c4)cc3c2)c1.[Na+].[Na+].[Na+] [3,3',3"-[1,3,6-Naphthalenetriyltris(sulfonylimino)]tribenzoic acid trisodium salt] | – | – | N | +3 wells | N | – | – | –
O=C(O)c1cc(NS(=O)(=O)c2ccc3c(S(=O)(=O)Nc4ccc(O)c(C(=O)O)c4)cc(S(=O)(=O)Nc4ccc(O)c(C(=O)O)c4)cc3c2)ccc1O [3,3',3"-[1,3,6-Naphthalenetriyltris(sulfonylimino)]tris[6-hydroxybenzoic acid]] | – | – | N | +1 wells | N | – | – | –
O=C([O-])c1ccc(NS(=O)(=O)c2ccc3c(S(=O)(=O)Nc4ccc(C(=O)[O-])cc4)cc(S(=O)(=O)Nc4ccc(C(=O)[O-])cc4)cc3c2)cc1.[Na+].[Na+].[Na+] [4,4',4"-[1,3,6-Naphthalenetriyltris(sulfonylimino)]tribenzoic acid trisodium salt] | – | – | N | – | N | – | – | –
O=C(O)c1cc(NS(=O)(=O)c2ccc3c(S(=O)(=O)Nc4cc(C(=O)O)c(O)c(C(=O)O)c4)cc(S(=O)(=O)Nc4cc(C(=O)O)c(O)c(C(=O)O)c4)cc3c2)cc(C(=O)O)c1O [5,5',5"-[1,3,6-Naphthalenetriyltris(sulfonylimino)]-tris[2-hydroxyisophthalic acid]] | – | – | +4 wells | +5 wells | +1 wells | -69% | -59% | -58%
O=C([O-])c1cc(NS(=O)(=O)c2ccc3c(S(=O)(=O)Nc4cc(C(=O)[O-])c(C(=O)[O-])c(C(=O)[O-])c4)cc(S(=O)(=O)Nc4cc(C(=O)[O-])c(C(=O)[O-])c(C(=O)[O-])c4)cc3c2)cc(C(=O)[O-])c1C(=O)[O-].[Na+].[Na+].[Na+].[Na+].[Na+].[Na+].[Na+].[Na+].[Na+] [5,5',5"-[1,3,6-Naphthalenetriyltris(sulfonylimino)]tri-1,2,3-benzenetricarboxylic acid nonasodium salt] | – | – | – | +8 wells | – | -63% | -71% | -71%
O=C([O-])c1cc(NS(=O)(=O)c2ccc3c(S(=O)(=O)Nc4cc(C(=O)[O-])cc(C(=O)[O-])c4)cc(S(=O)(=O)Nc4cc(C(=O)[O-])cc(C(=O)[O-])c4)cc3c2)cc(C(=O)[O-])c1.[Na+].[Na+].[Na+].[Na+].[Na+].[Na+] [5,5',5"-[1,3,6-Naphthalenetriyltris(sulfonylimino)]triisophthalic acid hexasodium salt] | – | – | – | – | N | -67% | -79% | -84%
O=C(O)c1cc(NS(=O)(=O)c2ccc3c(S(=O)(=O)Nc4cc(C(=O)O)cc(C(=O)O)c4)cc(S(=O)(=O)Nc4cc(C(=O)O)cc(C(=O)O)c4)cc3c2)cc(C(=O)O)c1 [5,5',5"-[1,3,6-Naphthalenetriyltris(sulfonyliminol)]triisophthalic acid] | – | – | +2 wells | +6 wells | N | -84% | -88% | -96%
CN(c1cc(C(=O)O)cc(C(=O)O)c1)S(=O)(=O)c1ccc2c(S(=O)(=O)N(C)c3cc(C(=O)O)cc(C(=O)O)c3)cc(S(=O)(=O)N(C)c3cc(C(=O)O)cc(C(=O)O)c3)cc2c1 [5,5',5"-[1,3,6-Naphthalenetriyltris(sulfonylmethylimino)]triisophthalic acid hexasodium salt] | – | – | N | +3 wells | N | – | – | –
Nc1ccc2cc(S(=O)(=O)O)cc(O)c2c1N=Nc1ccc(NC(=O)Nc2ccc(N=Nc3c(N)ccc4cc(S(=O)(=O)O)cc(O)c34)c(S(=O)(=O)O)c2)cc1S(=O)(=O)O [chlorazol fast pink, 3,3'-ureylenebis-[6-(2-amino-8-hydroxy-6-sulfo-1-naphthylazo)]benzenesulfonic acid, tetrasodium salt] | anticomplementary effect | – | – | – | – | – | – | –
NCCCCCC(=O)O [epsilon-aminocaproic acid] | – | used with success | – | – | – | – | – | –
NC[C@H]1CC[C@H](C(=O)O)CC1 [tranexamic acid] | – | used with success | – | – | – | – | – | –
heparin | anticomplementary effect | – | – | – | – | – | – | –

— US4087613A, “1,3,5- Or 1,3,6-naphthalenetriyltris(sulfonylimino)aryl acids and salts” (American Cyanamid Company, priority 1977, dated 1978)
